Columns and labels:
[1] = test system: autophagy in HOS cells (GFP-LC3); experiment: High Content Screening Autophagy Assay (GFP-LC3 foci); assay type: cell-based; conditions: Homo sapiens; HOS cells expressing GFP-LC3; autophagy activated with KU-0063794 500 nM and Bafilomycin A1 5 nM; 6 hours; foci area per cell; read-out: Median IC50 nM Cellular assay (HOS-LC3)
Description: Human osteosarcoma cells (HOS) stably expressing a Green Fluorescent Protein (GFP) tagged LC3 (GFP-LC3) were used to determine the inhibitory effect on autophagy of proprietary compounds. For that purpose, autophagy was activated by using the mTOR inhibitor KU-0063794 at 500 nM in the presence of Bafilomycin A1 (Sigma-Aldrich) at 5 nM. Shortly, cells were plated overnight in clear bottom 96-well plates in DMEM-High Modified media (Hi-Clone Cat #SH30285.01). At the start of the experiment, the media was removed and replaced with fresh media containing the mTOR inhibitor, Bafilomycin A1 and the vehicle or a test compound as indicated. After 6 hours the media was removed, cells were washed twice with ice-cold phosphate buffered saline (PBS) and fixed with 4% paraformaldehyde for 20 minutes at room temperature. Then the cells were washed twice with ice-cold PBS before adding Hoechst 33342 at 1 μg/ml in PBS for nuclear staining. After incubation overnight at 4° C., cells were washed once with PBS to remove the excess of dye and 100 μl of PBS was added to each well. Images were acquired at 20× magnification, 6 images per well, using the ImageXpress automated microscope (Molecular Devices Inc.) and analyzed with MetaXpress software to identify LC3-GFP foci. Foci area per cell values were used to generate dose response curves and IC50 values were calculated using the non-linear fitting analysis in GraphPad Prism software. […] The results of the assay are shown in Table 2 (Median IC50 nM HOS-LC3).

Vps34 enzyme = Vps34 enzyme (Homo sapiens (Human), UniProt Q8NEB9); experiment: Vps34 Biochemical Assay (Adapta kinase assay); conditions: 20 μM ATP and 200 μM PI:PS substrate mix, 1 h at room temperature, TR-FRET, read-out: Median IC50 nM Adapta
Chain of Vps34 enzyme (Q8NEB9 whole entry): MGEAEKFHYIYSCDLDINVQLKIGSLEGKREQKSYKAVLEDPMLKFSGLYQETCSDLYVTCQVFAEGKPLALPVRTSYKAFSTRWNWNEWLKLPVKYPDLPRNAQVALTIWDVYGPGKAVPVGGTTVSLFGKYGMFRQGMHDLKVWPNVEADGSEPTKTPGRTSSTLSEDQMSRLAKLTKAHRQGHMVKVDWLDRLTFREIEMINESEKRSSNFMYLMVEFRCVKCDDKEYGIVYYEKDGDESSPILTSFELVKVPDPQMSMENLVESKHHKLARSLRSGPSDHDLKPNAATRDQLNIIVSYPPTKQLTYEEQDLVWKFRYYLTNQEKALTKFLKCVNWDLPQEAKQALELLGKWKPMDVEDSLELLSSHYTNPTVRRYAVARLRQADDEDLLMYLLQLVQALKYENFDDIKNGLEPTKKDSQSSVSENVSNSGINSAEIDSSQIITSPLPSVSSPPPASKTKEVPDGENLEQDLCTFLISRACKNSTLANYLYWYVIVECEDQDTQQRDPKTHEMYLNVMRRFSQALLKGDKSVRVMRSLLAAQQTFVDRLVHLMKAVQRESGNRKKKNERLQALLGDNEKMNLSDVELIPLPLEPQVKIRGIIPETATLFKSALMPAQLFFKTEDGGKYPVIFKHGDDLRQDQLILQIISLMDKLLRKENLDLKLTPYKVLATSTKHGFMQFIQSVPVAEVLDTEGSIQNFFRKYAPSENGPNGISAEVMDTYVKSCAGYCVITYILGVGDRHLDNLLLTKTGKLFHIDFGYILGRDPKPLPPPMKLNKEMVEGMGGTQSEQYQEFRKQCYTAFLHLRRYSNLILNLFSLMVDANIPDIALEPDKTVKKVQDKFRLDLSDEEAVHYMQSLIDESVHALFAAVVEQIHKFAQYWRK
Description: Dilution series of compounds of the invention were prepared in DMSO at 100 times the final assay concentration (n1=n0/3 in 10 points). The compounds were further diluted to 4 times the assay concentration in assay buffer (Life technologies buffer Q, PV5125, diluted 5 times supplemented with 2 mM DTT and 2 mM MnCl2). 2.5 μl of the diluted compounds were added to a 384 well assay plate followed by 2.5 μl of 16.5 nM Vps34 enzyme (Life technologies, PV5126). Enzyme and compounds were pre-incubated at rt for 15 min. Then 5 μl of substrate mix containing 20 μM ATP (Life technologies, PV3227) and 200 μM PI:PS substrate (Life technologies, PV5122) in assay buffer was added to the wells containing compound and enzyme. Mixing was performed by pipetting several times. The reaction was incubated at room temperature for 1 h. Then 5 μl stop-detection mix, prepared as described in the Adapta kinase assay kit instructions (Life technologies, PV5099) containing Adapta Eu-anti-ADP antibody (2.3 nM), Alexa Fluor 647 ADP tracer (9 nM) and EDTA (30 mM) in TR-FRET buffer, was added to quench the reaction. Mixing was performed by pipetting several times. The assay plate was then incubated at room temperature for 30 min and read with Artemis micro plate reader. Percent inhibition of the compounds as compared to DMSO treated control samples was calculated. By the use of Dotmatics software compound concentration versus percent inhibition was fitted to generate IC50 values.

Row | Compound | IC50 [1] [nM] | IC50 (Vps34 enzyme) [nM]
1 | C[C@@H]1COCCN1c1cc(N2CCN(S(C)(=O)=O)CC2C(F)(F)F)[nH]c(=O)c1 (single isomer, unassigned) [Example 6-1] | 33 | < 5
2 | C[C@@H]1COCCN1c1cc(N2CCN(S(=O)(=O)N(C)C)CC2C(F)(F)F)[nH]c(=O)c1 (stereo partly drawn) [Example 16, N,N-dimethyl-4-[4-[(3R)-3-methylmorpholin-4-yl]-6-oxo-1H-pyridin-2-yl]-3-(trifluoromethyl)piperazine-1-sulfonamide] | 17 | < 5
3 | C[C@@H]1COCCN1c1cc(N2CCN(S(=O)(=O)N3CCOCC3)CC2C(F)(F)F)[nH]c(=O)c1 (stereo partly drawn) [Example 28, 4-[(3R)-3-methylmorpholin-4-yl]-6-[4-morpholinosulfonyl-2-(trifluoromethyl)piperazin-1-yl]-1H-pyridin-2-one] | 248 | 
4 | C[C@@H]1COCCN1c1cc(N2CCN(S(=O)(=O)c3ccnn3C)CC2C(F)(F)F)[nH]c(=O)c1 (stereo partly drawn) [Example 22, 4-[(3R)-3-methylmorpholin-4-yl]-6-[4-(2-methylpyrazol-3-yl)sulfonyl-2-(trifluoromethyl)piperazin-1-yl]-1H-pyridin-2-one] | 95 | 
5 | C[C@@H]1COCCN1c1cc(N2CCN(S(=O)(=O)C3CCOC3)CC2C(F)(F)F)[nH]c(=O)c1 (stereo partly drawn) [Example 12, 4-[(3R)-3-methylmorpholin-4-yl]-6-[4-tetrahydrofuran-3-ylsulfonyl-2-(trifluoromethyl)piperazin-1-yl]-1H-pyridin-2-one] | 55 | < 5
6 | C[C@@H]1COCCN1c1cc(-c2ccc(S(=O)(=O)N(C)C)cc2C(F)(F)F)[nH]c(=O)c1 [Example 35, N,N-dimethyl-4-[4-[(3R)-3-methylmorpholin-4-yl]-6-oxo-1H-pyridin-2-yl]-3-(trifluoromethyl)benzenesulfonamide] | 458 | < 5
7 | C[C@@H]1COCCN1c1cc(N2CCN(S(=O)(=O)C3CC3)CC2C(F)(F)F)[nH]c(=O)c1 (stereo partly drawn) [Example 24, 6-[4-Cyclopropylsulfonyl-2-(trifluoromethyl)piperazin-1-yl]-4-[(3R)-3-methylmorpholin-4-yl]-1H-pyridin-2-one] | 28 | 
8 | C[C@@H]1COCCN1c1cc(N2CCN(S(C)(=O)=O)CC2C(F)(F)F)[nH]c(=O)c1 (single isomer, unassigned) [Example 6-2] |  | 15
9 | C[C@@H]1COCCN1c1cc(N2CCN(S(=O)(=O)N3CCCC3)CC2C(F)(F)F)[nH]c(=O)c1 (stereo partly drawn) [Example 14, 4-[(3R)-3-methylmorpholin-4-yl]-6-[4-pyrrolidin-1-ylsulfonyl-2-(trifluoromethyl)piperazin-1-yl]-1H-pyridin-2-one] |  | < 5
10 | C[C@@H]1COCCN1c1cc(N2CCN(S(=O)(=O)c3ccc(F)cc3)CC2C(F)(F)F)[nH]c(=O)c1 (stereo partly drawn) [Example 20, 6-[4-(4-Fluorophenyl)sulfonyl-2-(trifluoromethyl)piperazin-1-yl]-4-[(3R)-3-methylmorpholin-4-yl]-1H-pyridin-2-one] | 223 | < 5
11 | C[C@@H]1COCCN1c1cc(N2CCN(S(=O)(=O)c3cncc(F)c3)CC2C(F)(F)F)[nH]c(=O)c1 (stereo partly drawn) [Example 10, 6-[4-[(5-Fluoro-3-pyridyl)sulfonyl]-2-(trifluoromethyl)piperazin-1-yl]-4-[(3R)-3-methylmorpholin-4-yl]-1H-pyridin-2-one] | 106 | < 5
12 | C[C@@H]1COCCN1c1cc(N2CCN(S(=O)(=O)N3CCCCC3)CC2C(F)(F)F)[nH]c(=O)c1 (stereo partly drawn) [Example 26, 4-[(3R)-3-methylmorpholin-4-yl]-6-[4-(1-piperidylsulfonyl)-2-(trifluoromethyl)piperazin-1-yl]-1H-pyridin-2-one] | 139 | < 5
13 | Cc1nc(S(=O)(=O)N2CCN(c3cc(N4CCOC[C@H]4C)cc(=O)[nH]3)C(C(F)(F)F)C2)cn1C (stereo partly drawn) [Example 30, 6-[4-(1,2-Dimethylimidazol-4-yl)sulfonyl-2-(trifluoromethyl)piperazin-1-yl]-4-[(3R)-3-methylmorpholin-4-yl]-1H-pyridin-2-one] | 84 | < 5
14 | C[C@@H]1COCCN1c1cc(-c2ccc(S(C)(=O)=O)cc2C(F)(F)F)[nH]c(=O)c1 [Example 33, 4-[(3R)-3-methylmorpholin-4-yl]-6-[4-methylsulfonyl-2-(trifluoromethyl)phenyl]-1H-pyridin-2-one] | 491 | < 5
15 | COCCS(=O)(=O)N1CCN(c2cc(N3CCOC[C@H]3C)cc(=O)[nH]2)C(C(F)(F)F)C1 (stereo partly drawn) [Example 18, 6-[4-(2-Methoxyethylsulfonyl)-2-(trifluoromethyl)piperazin-1-yl]-4-[(3R)-3-methylmorpholin-4-yl]-1H-pyridin-2-one] | 83 | < 5
16 | C[C@@H]1COCCN1c1cc(N2CCN(S(=O)(=O)C3(C)CC3)CC2C(F)(F)F)[nH]c(=O)c1 (stereo partly drawn) [Example 31, 6-[4-(1-methylcyclopropyl)sulfonyl-2-(trifluoromethyl)piperazin-1-yl]-4-[(3R)-3-methylmorpholin-4-yl]-1H-pyridin-2-one] |  | < 5
17 | C[C@@H]1COCCN1c1cc(N2CCN(S(=O)(=O)Cc3ccc(F)cc3)CC2C(F)(F)F)[nH]c(=O)c1 (stereo partly drawn) [Example 8, 6-[4-[(4-Fluorophenyl)methylsulfonyl]-2-(trifluoromethyl)piperazin-1-yl]-4-[(3R)-3-methylmorpholin-4-yl]-1H-pyridin-2-one] | 12 | < 5
